{"source": "patent US20260201336A1", "about": "“REPROGRAMMED SMOOTH MUSCLE CELLS AND METHODS RELATED THERETO” (EMORY UNIVERSITY, priority 2022, published 2026)", "test_system": "human dermal fibroblasts (HDFs)", "assay": "qRT-PCR of HDFs treated with ATRA for four days", "format": "cell-based", "experimental": "Cell culture and maintenance. Human dermal fibroblasts (HDFs) were isolated from the dermis of human juvenile foreskin and expanded in Dulbecco's Modified Eagle's medium (DMEM) (Lonza, Basel, SWI) supplemented with 10% fetal bovine serum (FBS) (Sigma-Aldrich, St. Louis, MO), 1× Antibiotic-Antimycotic (Anti-Anti) (Gibco, Waltham, MA), 1× MEM Non-Essential Amino Acids (MEM NEAA) (Gibco, Waltham, MA), and 1× GlutaMAX Supplement (GlutaMAX) (Gibco, Waltham, MA) at 37° C. with 5% CO2. The Platinum-A (Plat-A) retroviral packaging cell line (Cell Biolabs, San Diego, CA) was maintained in the same medium without Anti-Anti and used for transfection at passages four to seven. HDFs and directly reprogrammed smooth muscle cells (rSMCs) were maintained in DMEM with low glucose (HyClone, Logan, UT) supplemented with 5% FBS, Anti-Anti, MEM NEAA, and GlutaMAX.\nGeneration of directly reprogrammed SMCs. For direct reprogramming of HDFs into contractile SMCs, HDFs were seeded at a density of 1.5×10^5 cells per ml in DMEM (Lonza) supplemented with 10% FBS (Sigma-Aldrich), Anti-Anti (Gibco), MEM NEAA (Gibco), and GlutaMAX (Gibco) at 37° C. with 5% CO2. The cells were infected overnight with filtered retroviral medium containing four μg per ml of polybrene (Sigma-Aldrich) with or without 0.4, 2, or 10 μM per liter of all-trans retinoic acid (ATRA) (Sigma-Aldrich), and the viral medium was replaced with DMEM/low glucose (HyClone) supplemented with 5% FBS, Anti-Anti, MEM NEAA, and GlutaMAX with or without ATRA for 24 hrs. The viral infection was repeated twice, and the cells were maintained in DMEM/low glucose containing 5% FBS with or without ATRA for the duration of culture.\n[…] reverse transcriptase polymerase chain reaction (qRT-PCR). Total ribonucleic acid (RNA) was isolated from cells using the RNeasy Mini Kit (QIAGEN, Hilden, GE) or TRIsure (Bioline, Memphis, TN), according to the manufacturer's instructions. The extracted RNA was reverse transcribed with TaqMan Reverse Transcription Reagents (Applied Biosystems, Foster City, CA), according to the manufacturer's instructions. The synthesized cDNA was amplified with PowerUP SYBR Green Master Mix (Thermo Fisher Scientific, Waltham, MA), according to the manufacturer's instructions, and was subject to qRT-PCR with human or mouse specific primers, as shown in Table 1. Quantitative assessment of RNA levels was performed using a QuantStudio 3 96-well 0.2-ml real-time PCR system (Applied Biosystems). The relative messenger RNA (mRNA) expression was normalized to GAPDH.", "key": {"[1]": {"conditions": "ATRA-treated vs untreated HDFs, four days"}}}
{"molecule": "CC1=C(/C=C/C(C)=C/C=C/C(C)=C/C(=O)O)C(C)(C)CCC1", "note": "[ATRA, (2E,4E,6E,8E)-3,7-dimethyl-9-(2,6,6-trimethylcyclohexen-1-yl) nona-2,4,6,8-tetraenoic acid]", "values": [{"measurement": "expression of S100A4", "setting": "[1]", "result": "substantially reduced"}, {"measurement": "fold increase of SMC gene expression, CALD1", "setting": "[1]", "result": 1.1, "unit": "fold"}, {"measurement": "fold increase of SMC gene expression, MYH11", "setting": "[1]", "result": 6.1, "unit": "fold"}, {"measurement": "mRNA expression of STRA6 and the SMC genes", "setting": "[1]", "result": "increased"}, {"measurement": "most effective concentration for induction of SMC gene expression", "setting": "among the tested ATRA concentrations, HDFs", "result": 2, "unit": "µM"}]}
